Assay results from patent US20220380383A1, “NEUROPROTECTIVE PDI MODULATING SMALL MOLECULES AND METHODS OF USE THEREOF” (THE TRUSTEES OF COLUMBIA UNIVERSITY IN THE CITY OF NEW YORK, priority 2018, published 2022).
pEC50, pKd: −log10 of the molar value. Values after ≈ are worked out from the molar mass of the structure shown.

What was measured:
[1] = system: ROS in PC12 mHTTQ103 cells; test: CellROX Orange flow cytometry ROS assay; assay type: cell-based, rat; details: 3 μM, 24 hours, mHTT-induced cells
Experimental: (§1) In FIG. 14B, cells were stained with 5 μM CeIIROX Orange dye to assay cellular ROS production. Representative data from one of three flow cytometry replicates are shown. In FIG. 14C, an aliquot from each sample was used for assessing viability, using Trypan blue dye on ViCell. […] Data are plotted as mean±SD with n=3.
(§2) One goal was to further understand why modulating PDI activity can be neuroprotective in AD and HD models. Previously, we saw that LOC14 alters PDI's redox state from the reduced to the oxidized conformation (Kaplan et al. 2015). In vivo, there are oxidoreductase enzymes, such as ERO1, that regulate PDI's redox states and, as a byproduct of the redox reaction, pass electrons to oxygen as a final electron acceptor, generating H2O2. We hypothesized that LOC14 might function in place of oxidoreductases such as ERO1, oxidizing PDI without generating H2O2 and that this decrease in ROS production is what is causing the neuroprotection in cells and neurons. […] Cells were then stained with the fluorescent ROS-sensitive dye, CeIIROX Orange, and ROS assayed by flow cytometry. Induced mHTT-expressing cells had elevated levels of ROS compared to cells not expressing mHTT (uninduced cells) and these ROS were decreased in cells treated with LOC14 (FIG. 14B). […]

[2] = system: PC12 mHTTQ103 cells; test: Trypan blue viability assay; assay type: cell-based, rat; details: 3 μM, 24 hours
Experimental: as §1, §2

[3] = molecular target: T1, PDIa C56S mutant (PDI C39S) (Homo sapiens, UniProt P07237, C56S); test: MALDI-TOF mass spectrometry with PDIa C56S mutant; assay type: binding
T1 construct: made in house; host or cells: E. coli
Text: We also explored the feasibility of generating a crystal structure of PDI bound to one of these inhibitors for structure-based analog design. LOC14 is a reversible inhibitor of PDI and therefore may not remain bound to the protein in crystallization trays. To trap the LOC14-PDI complex, we generated a PDI C39S mutant that should not release the compound from PDI. To confirm this mechanism of binding, we performed MALDI-TOF mass-spectrometry experiments with PDI C39S in the presence and absence of LOC14 (FIG. 4). […] PDI C39S treated with LOC14 gave 4 peaks: main mass peak at 15,557 Da (change of +152 which corresponds to the bound benzoisothiazolone moiety to PDI C39S), a peak at 15,735 Da (corresponding to the benzoisothiazolone moiety bound to C39S-gluconoylated protein), a peak at 15,404 (the mass of unbound C39S protein), and a peak at 15,584 Da (the mass of unbound C39S-gluconoylated protein). […] The incomplete binding is most likely due to the presence of reducing agent in the buffer. […]
To confirm that binding of LOC14 to PDI is reversible, we pre-treated a C56S mutant, as before, with LOC14, BIT, or iodoacetamide, an irreversible modifier of cysteines. Once the PDI-inhibitor complexes were formed, we treated the samples with 2.7 mM DTT, a reducing agent, and analyzed the complex by MALDI-TOF.

[4] = system: PC12 mHTTQ103 cells; test: Rescue of PC12 cells from mHTTQ103-induced cell death; assay type: cell-based, rat; details: Tables 5-13, PC12 cells
[5] = Solubility (stock solvent); details: Tables 5-13; solvent not given (DMSO in Table 1)
[6] = molecular target: T2, human catalytic PDI A1 a domain (PDIa) (Homo sapiens, UniProt P07237); test: Isothermal titration calorimetry (ITC) binding to PDIa; details: Tables 5-13; NA = not active; read-out: Kd
T2 construct: made in house; host or cells: Escherichia coli BL21-Gold (DE3)

[7] = system: neuronal redox state (roGFP2); test: roGFP2 redox reporter in primary neurons; assay type: cell-based; details: 30 min treatment
Experimental: […]. Rat coronal brain slice explants co-transfected with YFP and Tau-4R (FIG. 16B) or striatal brain slice explants co-transfected with YFP and mHTT (FIG. 16C) were treated with LC-43 or DMSO carrier-only for 3 days. The respective regions of each brain slice were then scored for numbers of healthy (FIG. 16B) pyramidal or (FIG. 16C) medium spiny neurons remaining. Data are normalized to the negative control condition set to 100% and plotted as means±SEM. In FIG. 16D, The confocal images shown are maximal z-stacks of 0.5 μm steps (˜20 images per stack). (Bottom) Reduction of neuronal redox state by LC-43. Left, Primary neurons were co-transfected with mCherry (to positively identify transfected neurons) and the genetically encoded ratiometric redox reporter roGFP2. Four days later, the culture medium was changed into an identical formulation except without conventional antioxidant additives. 24 hours after this medium change, LOC-43 or DMSO carrier-only were added to the neurons and images were taken after 30 minutes or 24 hours of treatment as indicated. Imaging was done using a Leica SP5 inverted confocal microscope through a 63× water-immersion objective. Images of 40 individual neurons for each condition were collected at 405 and 488 nm and analysis of the 405/488 ratio for each image pair was done using CellProfiler (Broad Institute).
As mentioned, we synthesized several fluorine-containing analogs of LOC14 (analogs LC-43 and LC-40). Addition of fluorine was the only modification that was tolerated at the ortho position without a complete loss of activity in cells and in targeting PDI in vitro (Table 9). […] Additionally, we evaluated LC-43 using a genetically encoded redox reporter transfected into neurons. […] In contrast, treatment with the non-selective reducing agent dithiothreitol (DTT) produces an immediate and dramatic reduction in the roGFP2 fluorescence ratio that leads rapidly to cell degeneration and death (FIG. 16D). […]

T1 sequence (P07237 18-134 C56S): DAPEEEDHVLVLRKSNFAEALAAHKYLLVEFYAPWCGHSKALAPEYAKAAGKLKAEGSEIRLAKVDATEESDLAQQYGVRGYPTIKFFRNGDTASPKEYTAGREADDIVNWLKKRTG
T2 sequence (P07237 18-134): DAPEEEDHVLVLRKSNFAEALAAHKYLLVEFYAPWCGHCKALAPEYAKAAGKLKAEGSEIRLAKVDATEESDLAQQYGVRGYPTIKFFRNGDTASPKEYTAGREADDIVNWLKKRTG

SMILES: O=C(C1CC1)N1CCN(Cn2oc3ccccc3c2=O)CC1 [OxyLOC14]
- cellular ROS (CellROX Orange flow cytometry) [1]: did not decrease ROS
- protection from mHTT in trypan blue viability assay [2]: did not show any protection from mHTT

SMILES: NC(=O)CI [iodoacetamide]
- reversibility of binding to PDIa C56S after 2.7 mM DTT [3]: irreversible

SMILES: O=c1[nH]sc2ccccc12 [BIT, benzoisothiazolone, reference compound]
- reversibility of binding to PDIa C56S after 2.7 mM DTT [3]: bind reversibly to C53
- pEC50 ([4]; Rattus norvegicus, PC-12, read-out: EC50): 6.44
- Max Viability (%) [4]: 66%
- Solubility [5]: 100 mM (≈ 15.1 mg/mL)
- pKd [6]: 6.84

SMILES: O[C@H](CS)[C@H](O)CS (racemic) [DTT, dithiothreitol, reference compound]
- neuronal redox state (roGFP2) [7]: immediate and drastic reduction
